Laboratory results taken from ChEMBL document CHEMBL4130457, “Discovery of AZD-2098 and AZD-1678, Two Potent and Bioavailable CCR4 Receptor Antagonists” (ACS Med Chem Lett, 2017).
In brackets after ≈: the same amount, converted by molar mass. Activity calls are given as the source filed them. The calls are words filed in the database; no cut-off is given here.

Key:
[1] = Solubility of the compound; assay type: physicochemical
[2] = biological target: T1, C-C chemokine receptor type 7 (Homo sapiens) (UniProt P32248); experiment: Antagonist activity at CCR7 (unknown origin) at 10 uM; assay type: functional
T1 sequence (whole entry): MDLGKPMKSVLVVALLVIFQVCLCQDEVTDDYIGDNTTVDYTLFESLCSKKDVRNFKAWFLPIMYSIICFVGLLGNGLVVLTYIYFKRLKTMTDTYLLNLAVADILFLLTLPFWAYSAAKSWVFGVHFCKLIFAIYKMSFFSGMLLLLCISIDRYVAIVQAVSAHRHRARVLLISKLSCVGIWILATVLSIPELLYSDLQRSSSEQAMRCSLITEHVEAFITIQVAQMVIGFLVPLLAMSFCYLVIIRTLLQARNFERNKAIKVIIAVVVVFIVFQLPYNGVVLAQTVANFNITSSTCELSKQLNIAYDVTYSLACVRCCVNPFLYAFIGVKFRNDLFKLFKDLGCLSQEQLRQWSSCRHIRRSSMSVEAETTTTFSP

[3] = biological target: T2, C-C chemokine receptor type 4 (Canis lupus familiaris, UniProt Q8MJW8); experiment: Antagonist activity at dog CCR4
T2 sequence (Q8MJW8 whole entry): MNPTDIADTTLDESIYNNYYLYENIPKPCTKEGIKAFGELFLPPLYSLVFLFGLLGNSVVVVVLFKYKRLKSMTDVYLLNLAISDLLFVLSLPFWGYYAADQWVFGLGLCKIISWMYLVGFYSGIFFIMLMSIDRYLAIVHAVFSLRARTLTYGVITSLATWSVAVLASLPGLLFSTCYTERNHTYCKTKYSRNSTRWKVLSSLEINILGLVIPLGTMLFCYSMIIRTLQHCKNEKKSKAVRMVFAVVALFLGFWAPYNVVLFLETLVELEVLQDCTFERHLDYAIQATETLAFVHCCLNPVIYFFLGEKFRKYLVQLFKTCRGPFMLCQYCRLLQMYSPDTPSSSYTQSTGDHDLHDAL

[4] = Oral bioavailability in rat at 9 umol/kg; assay type: ADME, organism-based; conditions: in vivo
[5] = Volume of distribution at steady state in dog at 9 umol/kg, po or 3 umol/kg, iv; assay type: ADME, organism-based, Canis lupus familiaris; conditions: in vivo, read-out: Vdss
[6] = biological target: T3, C-C chemokine receptor type 4 (Homo sapiens, UniProt P51679); experiment: Antagonist activity at human CCR4 expressed in HEK cells coexpressing CD4+ assessed as inhibition of CCL22 induced Ca2+ mobilization; assay type: functional, cell-based
T3 sequence (P51679 whole entry): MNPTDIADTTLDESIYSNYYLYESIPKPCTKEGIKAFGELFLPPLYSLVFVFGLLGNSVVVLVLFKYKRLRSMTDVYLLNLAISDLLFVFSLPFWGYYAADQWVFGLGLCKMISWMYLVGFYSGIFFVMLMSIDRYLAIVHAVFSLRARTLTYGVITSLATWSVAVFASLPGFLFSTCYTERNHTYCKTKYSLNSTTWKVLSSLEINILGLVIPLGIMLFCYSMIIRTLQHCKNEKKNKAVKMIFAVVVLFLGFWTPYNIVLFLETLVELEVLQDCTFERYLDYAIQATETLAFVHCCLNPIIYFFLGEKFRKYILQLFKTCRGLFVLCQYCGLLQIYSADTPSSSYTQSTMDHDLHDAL

[7] = Lipophilicity, log P of the compound; assay type: physicochemical; conditions: octanol/water
[8] = biological target: T4, C-C chemokine receptor type 4 (Mus musculus, UniProt P51680); experiment: Antagonist activity at mouse CCR4; assay type: functional
T4 sequence (P51680 whole entry): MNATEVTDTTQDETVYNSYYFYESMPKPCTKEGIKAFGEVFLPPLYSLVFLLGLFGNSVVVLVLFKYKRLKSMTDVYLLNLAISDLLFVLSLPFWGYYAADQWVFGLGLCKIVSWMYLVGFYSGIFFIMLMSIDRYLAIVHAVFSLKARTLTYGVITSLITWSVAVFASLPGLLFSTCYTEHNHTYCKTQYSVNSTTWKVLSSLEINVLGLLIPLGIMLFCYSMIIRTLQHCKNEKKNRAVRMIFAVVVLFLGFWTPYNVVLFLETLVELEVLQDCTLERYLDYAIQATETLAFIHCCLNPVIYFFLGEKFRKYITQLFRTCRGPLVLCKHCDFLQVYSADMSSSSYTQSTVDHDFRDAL

[9] = biological target: T5, C-X-C chemokine receptor type 1 (Homo sapiens) (UniProt P25024); experiment: Antagonist activity at CXCR1 (unknown origin) at 10 uM; assay type: functional
T5 sequence (whole entry): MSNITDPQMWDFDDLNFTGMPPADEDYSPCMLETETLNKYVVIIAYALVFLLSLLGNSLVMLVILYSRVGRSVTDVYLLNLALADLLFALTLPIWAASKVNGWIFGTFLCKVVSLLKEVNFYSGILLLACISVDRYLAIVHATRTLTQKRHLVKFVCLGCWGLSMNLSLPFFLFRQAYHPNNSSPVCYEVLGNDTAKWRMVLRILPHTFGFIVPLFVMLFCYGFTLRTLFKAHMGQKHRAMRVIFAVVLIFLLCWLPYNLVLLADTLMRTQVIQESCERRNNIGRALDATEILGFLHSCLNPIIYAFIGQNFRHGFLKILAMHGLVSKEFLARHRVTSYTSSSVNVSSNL

[10] = Half life in rat at 9 umol/kg, po or 3 umol/kg, iv; assay type: ADME, organism-based; conditions: in vivo
[11] = biological target: C-C chemokine receptor type 5 (Homo sapiens) (UniProt P51681); experiment: Antagonist activity at CCR5 (unknown origin) at 10 uM; assay type: functional
[12] = Antagonist activity at rat CCR4
[13] = Lipophilicity, log D of the compound; assay type: physicochemical; conditions: octanol/water
[14] = biological target: T6, C-C chemokine receptor type 1 (Homo sapiens) (UniProt P32246); experiment: Antagonist activity at CCR1 (unknown origin) at 10 uM; assay type: functional
T6 sequence (whole entry): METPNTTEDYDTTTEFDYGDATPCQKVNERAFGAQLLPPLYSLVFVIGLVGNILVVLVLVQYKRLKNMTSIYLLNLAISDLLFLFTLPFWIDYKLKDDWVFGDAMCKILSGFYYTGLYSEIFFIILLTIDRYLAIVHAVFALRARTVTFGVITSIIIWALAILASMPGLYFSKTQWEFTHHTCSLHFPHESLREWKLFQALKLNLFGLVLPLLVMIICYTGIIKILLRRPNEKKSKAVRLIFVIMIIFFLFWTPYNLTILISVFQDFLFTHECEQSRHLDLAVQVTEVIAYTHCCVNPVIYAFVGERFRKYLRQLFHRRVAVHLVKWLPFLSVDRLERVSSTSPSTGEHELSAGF

[15] = biological target: T3, C-C chemokine receptor type 4; experiment: Antagonist activity at recombinant human CCR4 expressed in CHO-K1 cells assessed as inhibition of CCL22 induced Ca2+ mobilization after 2 hrs by FMAT based fluorescence assay; assay type: functional, cell-based
[16] = biological target: T7, C-X-C chemokine receptor type 2 (Homo sapiens) (UniProt P25025); experiment: Antagonist activity at CXCR2 (unknown origin) at 10 uM; assay type: functional
T7 sequence (whole entry): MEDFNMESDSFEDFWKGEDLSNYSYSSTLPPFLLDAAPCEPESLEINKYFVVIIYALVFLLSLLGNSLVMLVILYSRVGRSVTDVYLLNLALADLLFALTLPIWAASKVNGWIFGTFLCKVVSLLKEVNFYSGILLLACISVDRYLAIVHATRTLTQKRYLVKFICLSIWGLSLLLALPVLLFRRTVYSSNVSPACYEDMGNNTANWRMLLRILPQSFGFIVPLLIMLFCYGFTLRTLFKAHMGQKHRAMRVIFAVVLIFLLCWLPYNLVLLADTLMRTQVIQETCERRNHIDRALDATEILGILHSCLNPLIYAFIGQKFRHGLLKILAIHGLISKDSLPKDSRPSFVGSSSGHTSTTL

[17] = Volume of distribution at steady state in rat at 9 umol/kg, po or 3 umol/kg, iv; assay type: ADME, organism-based; conditions: in vivo, read-out: Vdss
[18] = Clearance in rat at 9 umol/kg, po or 3 umol/kg, iv; assay type: ADME, organism-based; conditions: in vivo
[19] = Protein binding in human plasma; assay type: ADME, cell-free; conditions: read-out: PPB (converted)
[20] = biological target: C-C chemokine receptor type 8 (Homo sapiens) (UniProt P51685); experiment: Antagonist activity at CCR8 (unknown origin) at 10 uM; assay type: functional
[21] = biological target: T8, C-C chemokine receptor type 4 (Homo sapiens) (UniProt P51679); experiment: Agonist activity at CCR4 (unknown origin) up to 10 uM; assay type: functional
T8 sequence (whole entry): T3 sequence (P51679 whole entry)

[22] = Oral bioavailability in dog at 9 umol/kg; assay type: ADME, organism-based, Canis lupus familiaris; conditions: in vivo
[23] = Half life in dog at 9 umol/kg, po or 3 umol/kg, iv; assay type: ADME, organism-based, Canis lupus familiaris; conditions: in vivo
[24] = Clearance in dog at 9 umol/kg, po or 3 umol/kg, iv; assay type: ADME, organism-based, Canis lupus familiaris; conditions: in vivo
[25] = biological target: C-C chemokine receptor type 2 (Homo sapiens) (UniProt P41597); experiment: Antagonist activity at CCR2b (unknown origin) at 10 uM
Hepatocyte = experiment: Stability in human hepatocytes assessed per million cells
[26] = Protein binding in rat plasma; assay type: ADME, cell-free; conditions: read-out: PPB (converted)
[27] = Volume of distribution at steady state in mouse; assay type: ADME, organism-based; conditions: in vivo, read-out: Vdss
[28] = Volume of distribution at steady state in rat; assay type: ADME, organism-based; conditions: in vivo, read-out: Vdss
[29] = Oral bioavailability in rat; assay type: ADME, organism-based; conditions: in vivo
[30] = Oral bioavailability in mouse; assay type: ADME, organism-based; conditions: in vivo
[31] = Protein binding in mouse plasma; assay type: ADME, cell-free; conditions: read-out: PPB (converted)

Chain of C-C chemokine receptor type 8 (Homo sapiens) (P51685 whole entry): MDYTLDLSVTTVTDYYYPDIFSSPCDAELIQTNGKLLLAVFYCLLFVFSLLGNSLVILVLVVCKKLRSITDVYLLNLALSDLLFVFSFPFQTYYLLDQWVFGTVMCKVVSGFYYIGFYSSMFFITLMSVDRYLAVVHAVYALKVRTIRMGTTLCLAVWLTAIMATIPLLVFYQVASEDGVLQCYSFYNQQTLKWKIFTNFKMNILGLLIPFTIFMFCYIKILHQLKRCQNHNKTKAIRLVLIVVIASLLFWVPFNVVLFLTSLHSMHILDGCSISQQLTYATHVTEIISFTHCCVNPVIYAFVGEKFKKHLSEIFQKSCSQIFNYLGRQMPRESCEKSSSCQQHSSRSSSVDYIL
Chain of C-C chemokine receptor type 5 (Homo sapiens) (P51681 whole entry, looked up): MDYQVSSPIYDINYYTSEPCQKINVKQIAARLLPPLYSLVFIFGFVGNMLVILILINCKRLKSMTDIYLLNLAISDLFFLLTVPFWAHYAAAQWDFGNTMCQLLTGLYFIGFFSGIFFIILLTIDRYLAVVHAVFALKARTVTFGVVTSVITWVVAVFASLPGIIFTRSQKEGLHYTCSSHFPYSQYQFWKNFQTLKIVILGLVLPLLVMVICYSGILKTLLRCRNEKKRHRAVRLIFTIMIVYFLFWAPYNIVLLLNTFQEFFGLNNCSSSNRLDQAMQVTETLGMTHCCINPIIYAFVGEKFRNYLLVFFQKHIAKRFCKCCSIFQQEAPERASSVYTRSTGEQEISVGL
Chain of C-C chemokine receptor type 2 (Homo sapiens) (P41597 whole entry, looked up): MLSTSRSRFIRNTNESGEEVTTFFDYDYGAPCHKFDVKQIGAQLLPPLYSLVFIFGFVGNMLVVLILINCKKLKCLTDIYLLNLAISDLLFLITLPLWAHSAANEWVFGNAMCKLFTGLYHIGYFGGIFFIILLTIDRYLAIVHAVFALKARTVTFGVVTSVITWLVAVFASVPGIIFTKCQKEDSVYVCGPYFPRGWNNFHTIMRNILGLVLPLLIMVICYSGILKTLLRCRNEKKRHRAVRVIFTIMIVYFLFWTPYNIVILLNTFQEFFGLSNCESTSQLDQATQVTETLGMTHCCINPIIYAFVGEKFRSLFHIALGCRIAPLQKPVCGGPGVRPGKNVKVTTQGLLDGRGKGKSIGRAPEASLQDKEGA

solubility [1] [µg/mL] | Activity [2] | IC50 [8] [nM] | Activity [9] | Activity [11] | pIC50 [12] | logD [13] | Activity [14] | IC50 [15] [nM] | Activity [16] | fraction unbound [19] | Activity [20] | Activity [25] | SMILES | other results
1300 (≈ 3690 µM) | inactive | 1 | inactive | inactive | 9 | 0.6 | inactive | 2.51 | inactive | 0.006 | inactive | inactive | COc1nc(F)cnc1NS(=O)(=O)c1cccc(Cl)c1Cl | IC50 [3]: 3.16 nM; bioavailability [4]: 100%; Vd [5]: 0.2 L/kg; IC50 [6]: 3.98 nM; logP [7]: 3.1; half-life [10]: 2.5 h; Vd [17]: 0.2 L/kg; clearance [18]: 2.3 mL/min/kg; Activity [21]: inactive; bioavailability [22]: 100%; half-life [23]: 0.5 h; clearance [24]: 3.7 mL/min/kg; Stability (Hepatocyte): < 1 uL/ml
340 (≈ 884 µM) | inactive | 5.01 | inactive | inactive | 8.3 | 1.1 | inactive | 63.1 | inactive | < 0.001 | inactive | inactive | COc1nc(Br)cnc1NS(=O)(=O)c1ccc(Cl)s1 | fraction unbound [26]: 0.0015; Vd [27]: 0.1 L/kg; Vd [28]: 0.1 L/kg; bioavailability [29]: 45%; bioavailability [30]: 86%; fraction unbound [31]: 0.033
